Test results from patent publication US10137141B2, “Treatment regimen tiacumicin compound” (priority 2014, dated 2018).
Values after ≈ are worked out from the molar mass of the structure shown. “Also recorded” adds a separate entry of the source. Read-outs that look alike come from different tables or passages of the source.

Experiments:
[1] = tested on: C. difficile infections (CDI); conditions: cited from earlier work
[2] = tested on: C. difficile PCR ribotype 027; experiment: In vitro gut model of CDI (three-stage chemostat): C. difficile viable counts, spore counts, cytotoxin titre; format: cell-based, Clostridium difficile; conditions: both tapered dosing regimens (Model C and D)
Procedure: Two 3-stage chemostat gut models were inoculated with pooled faeces (n=5). […] […] 5 days post treatment in the short course model, a further 5 days fidaxomicin pulse was given. CD total viable counts (TVC), spore counts (SP), toxin titres (CYT), and gut bacteria were measured throughout. Data were also compared with results for FDX given for 7 days (model 7).
(§1) Two tests in a validated three-stage compound continuous culture system (Freeman J, O'Neill F J, Wilcox M H. The effects of cefotaxime and desacetylcefotaxime upon Clostridium difficile proliferation and toxin production in a triple-stage chemostat model of the human gut. J Antimicrob Chemother 2003; 52: 96-102; Baines S D, Freeman J, Wilcox M H. Effects of piperacillin/tazobactam on Clostridium difficile growth and toxin production in a human gut model. J Antimicrob Chemother 2005; 55: 974-82) were run in parallel. Models were inoculated with pooled faecal slurry (10% in anaerobic distilled water) from healthy volunteers (n=5, age >60 yrs).
The continuous culture system consisted of three vessels, V1, V2, and V3, with respective operating volumes of 0.22, 0.32, and 0.32 L (FIG. 1). Temperature (37° C.) and pH were automatically controlled to reflect the proximal-distal colon. Culture pH in the three vessels was 5.5, 6.2, and 6.8, respectively. Each fermentor was magnetically stirred and maintained under an atmosphere of CO2. The growth medium was continuously sparged with O2-free N2 and fed by peristaltic pump to V1. V1 sequentially supplied V2 and V3 via a series of weirs. The culture medium consisted of the following constituents (g liter-1) in distilled water: starch (BDH Ltd.), 5.0; pectin (citrus), 2.0; guar gum, 1.0; mucin (porcine gastric type III), 4.0; xylan (oatspelt), 2.0; arabinogalactan (larch wood), 2.0; inulin, 1.0; casein (BDH Ltd.), 3.0; peptone water, 5.0; tryptone, 5.0; bile salts No. 3, 0.4; yeast extract, 4.5; FeSO4 z 7H2O, 0.005; NaCl, 4.5; KCl, 4.5; KH2PO4, 0.5; MgSO4 z 7H2O, 1.25; CaCl2 z 6H2O, 0.15; NaHCO3, 1.5; cysteine, 0.8; hemin, 0.05; Tween 80, 1.0 The system was initially operated at a retention time (R) of 27.1 h (experiment 1), followed by an increase to R=66.7 h (experiment 2). Retention time was calculated as the reciprocal of dilution rate. System retention constitutes the sum of individual R values in each fermentor. Minimum doubling times of bacteria were calculated as 0.693/D, where D is the dilution rate (h−1) for each culture vessel. Each fermentor was inoculated with 100 ml of a fresh 10% (w/v) fecal slurry from a healthy, nonmethane producing donor. […] Steady-state conditions were assessed by monitoring short-chain fatty acid (SCFA) formation. […]

[3] = tested on: Bifidobacteria; experiment: In vitro gut model: gut microflora by selective culture, Bifidobacteria; format: cell-based
Procedure: Two 3-stage chemostat gut models were inoculated with pooled faeces (n=5). […] Models were then treated with fidaxomicin (200 mg/L bd) for 20 or 5 d to achieve in vivo gut levels. 5 days post treatment in the short course model, a further 5 days fidaxomicin pulse was given. CD total viable counts (TVC), spore counts (SP), toxin titres (CYT), and gut bacteria were measured throughout. Data were also compared with results for FDX given for 7 days (model 7).
Two tests in a validated three-stage compound continuous culture system (Freeman J, O'Neill F J, Wilcox M H. The effects of cefotaxime and desacetylcefotaxime upon Clostridium difficile proliferation and toxin production in a triple-stage chemostat model of the human gut. J Antimicrob Chemother 2003; 52: 96-102; Baines S D, Freeman J, Wilcox M H. Effects of piperacillin/tazobactam on Clostridium difficile growth and toxin production in a human gut model. J Antimicrob Chemother 2005; 55: 974-82) were run in parallel. […]
(§2) The continuous culture system consisted of three vessels, V1, V2, and V3, with respective operating volumes of 0.22, 0.32, and 0.32 L (FIG. 1). […] Retention time was calculated as the reciprocal of dilution rate. […] Minimum doubling times of bacteria were calculated as 0.693/D, where D is the dilution rate (h−1) for each culture vessel. […] Steady-state conditions were assessed by monitoring short-chain fatty acid (SCFA) formation. […]

[4] = tested on: enterococci; experiment: In vitro gut model: gut microflora by selective culture, enterococci; format: cell-based; conditions: both dosing regimens (Model C and D)
Text: as §1
as §2, with “1). Temperature (37° C.) and pH were automatically controlled to reflect the proximal-distal colon. Culture pH in the three vessels was 5.5, 6.2, and 6.8, respectively. Each fermentor was magnetically stirred and maintained under an atmosphere of CO2.” for “1).”

[5] = Antimicrobial concentration (bioassay) in the in vitro gut model
Procedure: The continuous culture system consisted of three vessels, V1, V2, and V3, with respective operating volumes of 0.22, 0.32, and 0.32 L (FIG. 1). Temperature (37° C.) and pH were automatically controlled to reflect the proximal-distal colon. Culture pH in the three vessels was 5.5, 6.2, and 6.8, respectively. Each fermentor was magnetically stirred and maintained under an atmosphere of CO2. The growth medium was continuously sparged with O2-free N2 and fed by peristaltic pump to V1. V1 sequentially supplied V2 and V3 via a series of weirs. […] Retention time was calculated as the reciprocal of dilution rate. […] Minimum doubling times of bacteria were calculated as 0.693/D, where D is the dilution rate (h−1) for each culture vessel. […] Steady-state conditions were assessed by monitoring short-chain fatty acid (SCFA) formation. […]

[6] = tested on: C. difficile; experiment: MIC against C. difficile; format: cell-based, Clostridium difficile; conditions: Clostridioides difficile
[7] = tested on: CDI; experiment: Expected clinical outcome of the new dosing regimens (proposed clinical study); format: in vivo, patients; conditions: expected benefit of the dosing regimens of the invention
[8] = tested on: C. difficile PCR ribotype 027; conditions: cited from earlier work
[9] = tested on: Bifidobacteria; conditions: both dosing regimens (Model A and Model B); cited from earlier work
[10] = some previous fidaxomicin dosing regimens; cited from earlier work
[11] = tested on: Clostridium species; conditions: in vitro; cited from earlier work
[12] = low solubility, low permeability; cited from earlier work
[13] = oral administration; cited from earlier work
[14] = tested on: CDI; conditions: two Phase III trials; cited from earlier work
[15] = Model A: fidaxomicin 200 mg/L bd for 20 d

Structure (SMILES): CN[C@H](CC(C)C)C(=O)N[C@H]1C(=O)N[C@@H](CC(N)=O)C(=O)N[C@H]2C(=O)N[C@H]3C(=O)N[C@H](C(=O)N[C@H](C(=O)O)c4cc(O)cc(O)c4-c4cc3ccc4O)[C@H](O)c3ccc(c(Cl)c3)Oc3cc2cc(c3O[C@@H]2O[C@H](CO)[C@@H](O)[C@H](O)[C@H]2O[C@H]2C[C@](C)(N)[C@H](O)[C@H](C)O2)Oc2ccc(cc2Cl)[C@H]1O [vancomycin]
- Average symptom-free interval (SFI) ([1]; following a vancomycin taper): 37 days

Structure (SMILES): CCc1c(Cl)c(O)c(Cl)c(O)c1C(=O)O[C@H]1[C@H](O)[C@H](OC)[C@H](OC/C2=C\C=C\C[C@H](O)/C(C)=C/[C@H](CC)[C@@H](O[C@@H]3OC(C)(C)[C@@H](OC(=O)C(C)C)[C@H](O)[C@@H]3O)/C(C)=C/C(C)=C/C[C@@H]([C@@H](C)O)OC2=O)O[C@@H]1C [fidaxomicin, 3-[[[6-deoxy-4-O-(3,5-dichloro-2-ethyl-4,6-dihydroxybenzoyl)-2-O-methyl-β-D-mannopyranosyl]oxy]methyl]-12(R)-[[6-deoxy-5-C-methyl-4-O-(2-methyl-1-oxopropyl)-β-D-lyxo-hexopyranosyl]oxy]-11(S)-ethyl-8(S)-hydroxy-18(S)-(1(R)-hydroxyethyl)-9,13,15-trimethyloxacyclooctadeca-3,5,9,13,15-pentaene-2-one]
- Reduction of C. difficile viable counts to below the level of detection [2]: ~6 log10 cfu/mL
- Reduction of spore counts to below the level of detection [2]: ~4 log10 cfu/mL
- Reduction of toxin titres to below the level of detection [2]: 3 RU
- Time to reduce C. difficile viable counts, spore counts and toxin titres to below the level of detection [2]: < 3 days
- Declines in Bifidobacteria to limit of detection ([3]; both dosing regimens (Model C and D)): 6-8 log10 cfu/mL
- Recovery of Bifidobacteria populations ([3]; both models (C and D), by the end of the experiment): recovered to near pre-installation counts; also recorded: recovered to close to pre-fidaxomicin levels
- Declines in enterococci [4]: 2-5 log10 cfu/mL
- Persistence of fidaxomicin at supra MIC level ([5]; dosing regimens i and ii): 2 to 5 µg/mL
- Peak fidaxomicin concentration ([5]; human): ~100 mg/L
- MIC [6]: 0.25 µg/mL (≈ 0.236 µM)
- Recurrence [7]: below 5%
- CD TVC reduced to the limit of detection (LOD) by day [8, 15]: ≤ 5 days
- CYT (toxin titre) reduced to the limit of detection (LOD) by day [8, 15]: ≤ 7 days
- Reduction of CD TVCs ([8]; Model B: 200 mg/L bd 5 d, still detectable on day 5 of treatment): ~4 log10 cfu/mL
- TVC and SP after second 5 days fidaxomicin pulse ([8]; Model B: 5 d, 5 d rest, further 5 d pulse): decreased TVC and SP to LOD
- Decrease of bifidobacteria to below LOD [9]: 6-8 log10 cfu/mL
- Recovery of bifidobacteria [9]: did not recover
- Persistence of fidaxomicin [10]: 20 mg/L
- MIC values compared with optically pure S-isomer of tiacumicin B and other tiacumicin related compounds [11]: lower MIC values
- BCS (Biopharmaceutics Classification System) class [12]: Class IV
- Absorption from the intestinal tract [13]: poorly absorbed
- Initial clinical cure of CDI versus vancomycin [14]: non-inferiority
- Reduction of recurrence and sustained clinical response versus vancomycin [14]: superiority
- Courses resulting in treatment success ([1]; 18 courses of fidaxomicin in 14 patients (FID-TX, FID-CH, FID-TP)): 18 courses
- RCDI ([1]; FID-CH: 10-day fidaxomicin chaser, 8 courses, excluding RCDI due to antimicrobial exposure): 25%
- Average symptom-free interval (SFI) ([1]; FID-CH): 240 days
- RCDI ([1]; FID-TP: taper 200 mg daily 7 days then 200 mg QOD 7-26 days, 7 courses): no RCDI
- Average symptom-free interval (SFI) ([1]; FID-TP): 150 days
- RCDI episodes ([1]; FID-TX: 200 mg BID for 10 days, 3 courses): 66%
- Average symptom-free interval (SFI) ([1]; FID-TX): 73 days
